Source: patent US20250114389A1, “NUCLEOSIDES AND NUCLEOTIDES ANALOGS AS ANTIVIRAL AGENTS” (Emory University, priority 2021, published 2025)
Read-outs that look alike come from different tables or passages of the source.

Key:
Format in all cases: cell-based
SARS-CoV2 variant Beta [1] = assay: microbe, parasite or virus in culture
SARS-CoV2 variant Gamma [2] = assay: microbe, parasite or virus in culture
SARS-CoV2 variant Delta [3] = assay: microbe, parasite or virus in culture
SARS-CoV2 Lineage A (Wa) [4] = assay: Antiviral activity against SARS-CoV2 Lineage A (Wa) in Vero
SARS-CoV2 variant Alpha [5] = assay: microbe, parasite or virus in culture
SARS-CoV2 variant Beta [6] = assay: microbe, parasite or virus in culture; remark: listed apart in the source
SARS-CoV2 variant Gamma [7] = assay: microbe, parasite or virus in culture; remark: listed apart in the source
SARS-CoV2 variant Delta [8] = assay: microbe, parasite or virus in culture; remark: listed apart in the source
[9] = tested on: SARS-CoV2 Lineage A (Eng); assay: Antiviral activity against SARS-CoV2 Lineage A (Eng) in Calu3
SARS-CoV2 Lineage A (Wa) [10] = assay: Antiviral activity against SARS-CoV2 Lineage A (Wa) in Calu3
SARS-CoV2 variant Alpha [11] = assay: microbe, parasite or virus in culture; remark: listed apart in the source
[12] = Severe acute respiratory syndrome coronavirus 2, Vero, read-out: Antiviral Activity Against SARS-CoV2 Variants in Vero, first value column
[13] = Severe acute respiratory syndrome coronavirus 2, Calu-3, Calu3, read-out: Antiviral Activity Against SARS-CoV2 Variants in Calu3, first value column
[14] = Severe acute respiratory syndrome coronavirus 2, Calu-3, read-out: Antiviral Activity Against SARS-CoV2 Variants in Calu3, first value column

Row | Compound | Antiviral Activity Against SARS-CoV2 Variants in Vero (SARS-CoV2 variant Beta [1]) | Antiviral Activity Against SARS-CoV2 Variants in Vero (SARS-CoV2 variant Gamma [2]) | Antiviral Activity Against SARS-CoV2 Variants in Vero (SARS-CoV2 variant Delta [3]) | Antiviral Activity Against SARS-CoV2 Variants in Vero (SARS-CoV2 Lineage A (Wa) [4]) | Antiviral Activity Against SARS-CoV2 Variants in Vero (SARS-CoV2 variant Alpha [5]) | Antiviral Activity Against SARS-CoV2 Variants in Calu3, second value column (SARS-CoV2 variant Beta [6]) | Antiviral Activity Against SARS-CoV2 Variants in Calu3, second value column (SARS-CoV2 variant Delta [8]) | Antiviral Activity Against SARS-CoV2 Variants in Calu3, second value column [9] | Antiviral Activity Against SARS-CoV2 Variants in Calu3, second value column (SARS-CoV2 Lineage A (Wa) [10]) | Antiviral Activity Against SARS-CoV2 Variants in Calu3, second value column (SARS-CoV2 variant Alpha [11]) | further results
1 | N#C[C@@]1(n2ccc(N)nc2=O)O[C@H](CO)[C@@H](O)[C@H]1O [Compound A, (2R,3R,4S,5R)-2-(4-amino-2-oxopyrimidin-1(2H)-yl)-3,4-dihydroxy-5-(hydroxymethyl)-tetrahydrofuran-2-carbonitrile] | 1.4 µM | 1.0 µM | 0.3 µM | 0.4 µM | 1.2 µM | 1.2 µM | 0.1 µM | 3.6 µM | 4.5 µM | 0.4 µM | EC50 (SARS-CoV2 variant Beta [1]; [12]): 300 nM; EC50 (SARS-CoV2 variant Gamma [2]; [12]): 800 nM; EC50 (SARS-CoV2 variant Delta [3]; [12]): 200 nM; EC50 (SARS-CoV2 Lineage A (Wa) [4]; Severe acute respiratory syndrome coronavirus 2, read-out: Antiviral Activity Against SARS-CoV2 Variants in Vero, first value column): 200 nM; EC50 (SARS-CoV2 variant Alpha [5]; [12]): 800 nM; EC50 (SARS-CoV2 variant Beta [6]; [13]): 300 nM; Antiviral Activity Against SARS-CoV2 Variants in Calu3, second value column (SARS-CoV2 variant Gamma [7]): 1.2 µM; EC50 (SARS-CoV2 variant Gamma [7]; [13]): 1100 nM; EC50 (SARS-CoV2 variant Delta [8]; [13]): 40 nM; EC50 [9, 14]: 1800 nM; EC50 (SARS-CoV2 Lineage A (Wa) [10]; [14]): 1700 nM; EC50 (SARS-CoV2 variant Alpha [11]; [13]): 100 nM
2 | CCC(CC)COC(=O)[C@H](C)N[P@](=O)(OC[C@H]1O[C@@](C#N)(c2ccc3c(N)ncnn23)[C@H](O)[C@@H]1O)Oc1ccccc1 [Remdesivir, reference compound] | 1.6 µM | 2.2 µM | 2.1 µM | 2.9 µM | 0.6 µM | 0.4 µM | 0.3 µM | 2.3 µM | 0.3 µM | 0.4 µM | 
